What is called EC50 is the midpoint of the concentration-response curve.

This note sets out measurements from article PMC10108392, “Rimonabant-Based Compounds Bearing Hydrophobic Amino Acid Derivatives as Cannabinoid Receptor Subtype 1 Ligands” (ACS Medicinal Chemistry Letters, 2023).

“Also recorded” adds a separate entry of the source.

For one assay, the target named is T1, CB1R (Rattus norvegicus, UniProt P20272).
T1 construct: Crude membrane fractions were prepared from the brain; from tissue; host or cells: Wistar rat whole brain, crude membrane fraction
T1 sequence (P20272 whole entry): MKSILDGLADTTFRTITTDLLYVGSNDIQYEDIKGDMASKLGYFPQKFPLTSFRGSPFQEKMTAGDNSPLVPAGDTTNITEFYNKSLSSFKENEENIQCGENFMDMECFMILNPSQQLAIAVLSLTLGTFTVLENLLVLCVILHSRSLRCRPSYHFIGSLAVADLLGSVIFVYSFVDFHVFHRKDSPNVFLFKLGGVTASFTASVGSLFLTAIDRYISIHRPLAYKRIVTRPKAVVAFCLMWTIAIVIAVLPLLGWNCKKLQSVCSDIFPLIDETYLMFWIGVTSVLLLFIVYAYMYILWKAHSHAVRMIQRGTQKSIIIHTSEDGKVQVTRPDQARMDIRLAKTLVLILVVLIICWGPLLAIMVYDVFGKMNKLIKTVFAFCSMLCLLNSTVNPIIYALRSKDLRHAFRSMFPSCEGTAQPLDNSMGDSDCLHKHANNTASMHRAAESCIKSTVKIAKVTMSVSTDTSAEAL
In words: Ligand stimulated [35S]GTPγS binding assay in rat brain membranes. It is filed as biochemical. The note with it: rat brain membranes. (In general: GTPγS resists hydrolysis and so accumulates on activated G proteins.)

For the next assay, the system named is mice. In words: Hot plate test. Format: in vivo, mouse. The note with it: 10 μg/10 μL i.c.v., 15-120 min. The text has this: In Vivo Biological Assays
The international and national law and policies approved by Italian Ministry of Health were used to comply with all animal care and experimental procedures. Animal studies were advised in compliance with the ARRIVE guidelines and with the recommendations made by EU Directive 2010/63/EU for animal experiments and the Basel declaration including the 3Rs concept. CD-1 male mice (10-14 weeks of age, 25-30 g of weight) were bought from Charles River (Milan, Italy). […]
The test was carried out as previously described. […] Mice were transferred into transparent and individual plastic cages with thick white paper lining the bottom and access to a pre-measured amount of their regular lab chow (2 gr) for the 1-h test. […] The amount of food left in the trial cage, including crumbs, was measured, and the amount consumed was calculated. […]
Thermal nociception (hot-plate test) was assessed with a commercially available apparatus consisting of a metal plate 25x25 cm (Ugo Basile, Italy) heated to a constant temperature of 55.0 ± 0.1 °C, on which a plastic cylinder (20 cm diameter, 18 cm high) was placed. The time of latency (s) was recorded from the moment the animal was placed in the cylinder on the hot plate until it licked its paws or jumped; the cut-off time was 60 s. […] The time course of latency was then determined at 15, 30, 45, 60, 90 and 120 min after compound treatment. […]
(In general: In hot-plate and tail-flick tests a longer latency is read as antinociception.)

Take `CNC(=O)[C@@H](NC(=O)c1nn(-c2ccc(Cl)cc2)c(-n2cccc2)c1C)C(C)(C)C` [Compound 34, RS2691-tLeu-NHCH3]: the “CB1R functional profile (agonist / antagonist / inverse agonist)” value on CB1R (from [35S]GTPγS binding) was “agonist”. The EC50 on CB1R (± SEM, read-out: [35S]GTPγS stimulation EC50) stood at 46 ± 4.1 nM. The “anti-nociceptive effect in hot plate test (%MPE)” value in the assay on mice is “strong and long-lasting anti-nociceptive effect; also recorded: more potent than that of the reference compound”.
